“And” between values parts separate entries of the source, which are not always exact repeats. Equal entries are not always repeated. Where two headings read alike, the source gives them in different places.
Columns and labels:
Gdx-Clo = target: T1, Gdx-Clo (Clostridiales bacterium oral taxon 876, UniProt U2EQ00); assay: Isothermal titration calorimetry (ITC); assay type: binding, Clostridales oral taxon 876; conditions: for n: ITC binding stoichiometry, pH 8.5, mean ± SEM; for Kd / TΔS / ΔG / ΔH / Binding stoichiometry: ITC; for Kd / TΔS / ΔG / ΔH: pH 8.5, 25°C, mean ± SEM; for Binding stoichiometry: pH 8.5, exothermic binding
T1 sequence (U2EQ00 1-105): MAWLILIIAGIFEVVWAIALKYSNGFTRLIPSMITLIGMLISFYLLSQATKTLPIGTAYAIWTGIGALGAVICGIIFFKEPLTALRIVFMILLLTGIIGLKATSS
Protocol: ITC experiments were conducted using a low-volume Nano ITC instrument (TA Instruments). […] For each experiment, 300 µl of 700 µM Gdx-Clo was loaded in the sample chamber maintained at 25°C with 350 rpm stirring speed. […] The sample was titrated (0.75 µl injections) at 100-s increments. Once an acceptable baseline slope was achieved (0.30 µW/h and 0.03 µW standard deviation), a 200 s baseline (∼112 µW) was taken prior to beginning titrations. Data were analyzed using NanoAnalyze software.
For both substrates, the Kd value measured using ITC was in good agreement with the Kd value obtained using tryptophan fluorescence, validating the tryptophan fluorescence approach to monitor substrate binding.

Fluc-Bpe = Fluc-Bpe (Bordetella pertussis, UniProt Q7VYU0); assay: SSM electrophysiology cross-reactivity control with individually reconstituted Fluc-Bpe; assay type: biochemical
Protocol: SSM experiments were performed using SURFE^2R N1 instrument (Nanion Technologies). Sensors were prepared with a 1,2-diphytanoyl-sn-glycero-3-phosphocholine (DPhPC) lipid monolayer according to published protocols ([Bazzone et al., 2017]). Each sensor’s capacitance and conductance were verified before use (<80 nF capacitance, <50 nS conductance) using Nanion software protocols. Proteoliposome stock was diluted 1:25 in assay buffer (100 mM KCl, 100 mM KPO4, pH 7.5) prior to adsorption to the DPhPC monolayer. For substrate screening experiments, reference substrate samples (Gdm^+ for SMRGdx, and TPA^+ for SMRQac) were checked periodically to test for the stability of the sensor; if the current amplitude of the reference compound differed by >10% on one sensor, it indicated the desorption of liposomes, and the sensor was not used for further experiments. For every SSM electrophysiology experiment, we used the same general solution exchange protocol: after 2 s perfusion with a non-activating solution, we perfused substrate-containing buffer for 2 s and then returned to the equilibrium condition with a 4 s perfusion of non-activating buffer. […]
The adsorption of proteoliposomes to the sensor is subject to considerable variability from experiment to experiment, so the current measurements from different sensors cannot be quantitatively compared ([Barthmes et al., 2016]). […]

Gdx-pPro = Gdx-pPro (Citrobacter freundii, UniProt O69279); conditions: for Transport currents in substrate screen: 2 mM substrate
Gdx-Eco = Gdx-Eco (Escherichia coli, UniProt P69937); assay: SSM electrophysiology of Gdx-Eco proteoliposomes; assay type: biochemical; conditions: for Transport currents in substrate screen: 2 mM substrate; for Km: pH 7.5, mean ± SEM, read-out: Km determined using SSM electrophysiology
Protocol: (§1) Gdx-Clo ([Kermani et al., 2018]), Gdx-Eco ([Kermani et al., 2018]), EmrE ([Kermani et al., 2022]), and Gdx-pAmi ([Martinez-Vaz et al., 2022]) construct design and purification have been described previously. […] Proteins were overexpressed in C41(DE3). Expression was induced by the addition of 0.2 mM IPTG for 3 h. Cells were lysed and extracted with 2% n-decyl-β-D-maltoside (DM) for 2 h. After pelleting insoluble cell debris, proteins were purified using cobalt affinity resin. Wash buffer contained 25 mM Tris, pH 8.5, 150 mM NaCl, and 5 mM DM. For Gdx-pAmi, NaCl concentration was increased to 500 mM NaCl. The affinity column was washed with wash buffer, then wash buffer with 10 mM imidazole, prior to elution with wash buffer with 400 mM imidazole. For Gdx-Clo and Gdx-Eco, histidine tags were cleaved with LysC (200 ng/mg of protein; 2 h at room temperature; New England Biolabs), and for all others, histidine tags were cleaved with thrombin (1 U/mg of protein, overnight at room temperature; MilliporeSigma). Proteins were further purified using a gel filtration Superdex200 column (Cytiva) equilibrated with 100 mM NaCl, 10 mM N-2-hydroxyethylpiperazine-N′-2-ethanesulfonic acid (HEPES), pH 7.5, and 5 mM DM. Purified proteins were stored at 4°C for up to 5 days before detergent binding assays. To prepare proteoliposomes for electrophysiology assays, purified protein was mixed with E. coli polar lipid extract (10 mg/ml; Avanti Polar Lipids) solubilized with 35 mM 3-[(3-cholamidopropyl)dimethylammonio]-1-propanesulfonate (CHAPS) at a protein to lipid ratio of 40 μg SMR transporter: mg lipid (1:370 protein:lipid molar ratio) prior to detergent removal by dialysis. For preparations that included Fluc-Bpe, liposomes were reconstituted with a molar ratio of 0.3 Fluc-Bpe:1 SMRGdx: 5920 lipid (1 μg Fluc-Bpe and ∼2.5 μg SMRGdx per mg lipid). For liposome transport assays, proteoliposomes were prepared similarly, except that a 2:1 mixture of 1-palmitoyl, 2-oleoylphosphatidylethanolamine (POPE) and 1-palmitoyl, 2-oleoylphosphatidylglycerol (POPG) (10 mg/ml; Avanti Polar Lipids) was used with 0.2 μg protein/mg lipid. Proteoliposomes were stored at −80°C until use.
(§2) SSM experiments were performed using SURFE^2R N1 instrument (Nanion Technologies). Sensors were prepared with a 1,2-diphytanoyl-sn-glycero-3-phosphocholine (DPhPC) lipid monolayer according to published protocols ([Bazzone et al., 2017]). Each sensor’s capacitance and conductance were verified before use (<80 nF capacitance, <50 nS conductance) using Nanion software protocols. Proteoliposome stock was diluted 1:25 in assay buffer (100 mM KCl, 100 mM KPO4, pH 7.5) prior to adsorption to the DPhPC monolayer. For substrate screening experiments, reference substrate samples (Gdm^+ for SMRGdx, and TPA^+ for SMRQac) were checked periodically to test for the stability of the sensor; if the current amplitude of the reference compound differed by >10% on one sensor, it indicated the desorption of liposomes, and the sensor was not used for further experiments. For every SSM electrophysiology experiment, we used the same general solution exchange protocol: after 2 s perfusion with a non-activating solution, we perfused substrate-containing buffer for 2 s and then returned to the equilibrium condition with a 4 s perfusion of non-activating buffer. For experiments with the S104C/A70C crosslinked variant, reducing conditions were established by the addition of 2.5 mM tris(2-carboxyethyl)phosphine (TCEP) to the activating and non-activating buffers.
(§3) We screened a series of metformin metabolites for transport using SSM electrophysiology (Fig. 2, A and B).

Gdx-pAmi = assay: SSM electrophysiology of Gdx-pAmi proteoliposomes; assay type: biochemical, Aminobacter sp. MET; conditions: for Transport currents in substrate screen: 2 mM substrate; for Km: pH 7.5, mean ± SEM, read-out: Km determined using SSM electrophysiology
Protocol: as §1, §2, §3

[1] = substrate at fivefold Km, normalized to Fluc-Bpe fluoride current

Chain of Gdx-pPro (O69279 2-105): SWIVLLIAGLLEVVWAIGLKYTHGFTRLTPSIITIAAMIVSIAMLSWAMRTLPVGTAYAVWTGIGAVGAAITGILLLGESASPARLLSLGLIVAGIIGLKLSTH
Chain of Gdx-Eco (P69937 whole entry): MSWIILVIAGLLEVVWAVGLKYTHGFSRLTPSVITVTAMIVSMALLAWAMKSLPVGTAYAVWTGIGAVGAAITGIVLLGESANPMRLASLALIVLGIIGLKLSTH
Chain of Fluc-Bpe (Q7VYU0 whole entry): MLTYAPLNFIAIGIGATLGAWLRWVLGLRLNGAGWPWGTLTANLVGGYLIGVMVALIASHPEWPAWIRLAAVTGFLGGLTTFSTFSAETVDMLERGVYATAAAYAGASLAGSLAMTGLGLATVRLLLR

Row | SMILES | n (Gdx-Clo) | Kd (Gdx-Clo) [µM] | TΔS (Gdx-Clo) [kcal/mol] | ΔG (Gdx-Clo) [kcal/mol] | ΔH (Gdx-Clo) [kcal/mol] | Binding stoichiometry (Gdx-Clo) | Response of Fluc-Bpe to substrate perfusion (Fluc-Bpe) | Transport currents in substrate screen (Gdx-pPro) | Maximal velocity for Gdm+ relative to guanylurea (Gdx-pPro; [1]) | Transport currents in substrate screen (Gdx-Eco) | Km (Gdx-Eco) [mM] | Maximal velocity for Gdm+ relative to guanylurea (Gdx-Eco; [1]) | Transport currents in substrate screen (Gdx-pAmi) | Km (Gdx-pAmi) | Turnover rate of Gdm+ relative to guanylurea (Gdx-pAmi; substrate at fivefold Km, normalized to Fluc-Bpe fluoride current and reconstitution efficiency) | Km (Gdx-pAmi; listed as guanylurea) [mM]
1 | N=C(N)N [Gdm^+, guanidinium] | 0.56 ± 0.04 | 410 ± 40 | -0.3 ± 0.9 | -4.6 ± 0.1 | -4.9 ± 1.0 | ~1 substrate per protein dimer | do not elicit a response | negative capacitive currents | approximately twofold higher | negative capacitive currents | 1.7 ± 0.5 | approximately twofold higher | negative capacitive currents | 16 mM and 15.7 mM | comparable | –
2 | N=C(N)NC(N)=O [Guanylurea, guanylurea] | 0.43 ± 0.03 | 140 ± 30 | -1.8 ± 0.6 | -5.4 ± 0.06 | -7.2 ± 0.6 | ~1 substrate per protein dimer | do not elicit a response | negative capacitive currents | – | negative capacitive currents | 0.85 ± 0.1 | – | negative capacitive currents | 5.2 ± 2 mM | – | 5
